Source: patent US7541018B2, “Treatment process using somatostatin analogues” (University of Bern, priority 2001, dated 2009)
Bridge positions count the residues as written; N and C are the ends. Square brackets hold non-standard residues; d marks the D form. Peptide text beside a SMILES is read from it. * marks the point of attachment. DOTA = O=C(O)CN1CCN(CC(=O)O)CCN(CC(=O)*)CCN(CC(=O)O)CC1; dDab = NCC[C@@H](N)C(=O)O; GABA = NCCCC(=O)O

Key:
Assay in all cases: Receptor autoradiography displacement of 125I-[Leu8,D-Trp22,Tyr25]-somatostatin 28 on membrane pellet sections
Assay type in all cases: binding
human sst5 = target: T1, human sst5 (Homo sapiens, UniProt P35346); settings: CHO-K1 cells stably expressing human sst5; sectioned membrane pellets; read-out: IC50 hsst5
T1 construct: expressed in transfected cells; host or cells: CHO-K1
T1 sequence (P35346 whole entry): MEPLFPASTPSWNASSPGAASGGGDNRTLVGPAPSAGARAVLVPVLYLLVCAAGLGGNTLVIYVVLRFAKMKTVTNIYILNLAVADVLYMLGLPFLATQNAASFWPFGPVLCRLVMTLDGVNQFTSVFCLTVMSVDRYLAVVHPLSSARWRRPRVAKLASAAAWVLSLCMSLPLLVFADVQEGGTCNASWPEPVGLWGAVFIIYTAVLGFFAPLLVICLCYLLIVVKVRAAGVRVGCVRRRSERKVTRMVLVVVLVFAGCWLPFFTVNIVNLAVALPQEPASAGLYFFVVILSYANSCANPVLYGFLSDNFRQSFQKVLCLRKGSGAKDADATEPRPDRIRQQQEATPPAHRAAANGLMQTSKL
Description: (§1) Cell culture CHO-K1 cells stably expressing human sst1 and sst5 were kindly provided by Drs. T. Reisine and G. Singh (University of Pennsylvania, Philadelphia, Pa.) and CCL39 cells stably expressing human sst2, sst3, and sst4 by Dr. D. Hoyer (Novartis Pharma, Basel, Switzerland).
(§2) CHO-K1 cells were grown in Ham's F-12 medium and CCL39 cells in Dulbecco's modified Eagle's medium/Ham's F-12 (1:1) mix, supplemented with 10% fetal bovine serum, 100 μg/mL penicillin and 100 μg/mL streptomycin, in humidified air containing 5% CO2 at 37° C. Geneticin (G418-sulfate; Gibco, USA) was used where necessary to maintain selection pressure at a final concentration of 400 μg/mL for sst2 to sst4—and 285 μg/mL for sst5—expressing cells as described previously (Rens-Domiano S. & Reisine T., Biochemical and functional properties of somatostatin receptors, J. Neurochem., 58:1987-1996 (1992); O'Caroll A. et al., Characterization of cloned human somatostatin receptor SSTR5, Molec. Pharmacol., 46:291-298 (1994); Siehler S. et al., [^125I]Tyr^10-cortistatin14 labels all five somatostatin receptors, Naunyn-Schmiedeberg's Arch. Pharmacol., 357:483-489 (1998).).
(§3) Cells were washed twice with and scraped into ice-cold 0.05 M Tris-CHl (pH 7.4), collected by centrifugation, and homogenized using a rotor/stator slash system (POLYTRON®, Kinematica Inc., Littau, Switzerland) in the same buffer. After centrifugation at 120 g for 5 min at 4° C., the supernatant was collected and centrifuged again at 48,000 g for 30 min at 4° C. The resulting pellet was re-suspended in ice-cold Tris buffer, transferred into a microfuge tube, and centrifuged at 20,000 g for 15 min at 4° C. After withdrawal of the supernatant, the membrane pellet was stored at −80° C.
(§4) Receptor autoradiography was performed on 20 μm thick cryostat (Leitz 1720, Rockleigh, N.J.) sections of the membrane pellets, mounted on microscope slides, and then stored at −20° C.
(§5) IC50 values were calculated after quantification of the data using a computer-assisted image processing system as described previously (Reubi, J. C. et al., Detection of somatostatin receptors in surgical and percutaneous needle biopsy samples of carcinoids and islet cell carcinomas, Cancer Res. 50: 5969-5977 (1990).). Tissue standards (Autoradiographic [^125I] microscales, Amersham) that contain known amounts of isotope, cross-calibrated to tissue-equivalent ligand concentrations were used for quantification (Reubi, J. C., In vitro identification of vasoactive intestinal peptide receptors in human tumors: Implications for tumor imaging, J. Nucl. Med. 36: 1846-1853 (1995).).

human sst1 = target: T2, human sst1 (Homo sapiens, UniProt P30872); settings: CHO-K1 cells stably expressing human sst1; sectioned membrane pellets; read-out: IC50 hsst1
T2 construct: expressed in transfected cells; host or cells: CHO-K1
T2 sequence (P30872 whole entry): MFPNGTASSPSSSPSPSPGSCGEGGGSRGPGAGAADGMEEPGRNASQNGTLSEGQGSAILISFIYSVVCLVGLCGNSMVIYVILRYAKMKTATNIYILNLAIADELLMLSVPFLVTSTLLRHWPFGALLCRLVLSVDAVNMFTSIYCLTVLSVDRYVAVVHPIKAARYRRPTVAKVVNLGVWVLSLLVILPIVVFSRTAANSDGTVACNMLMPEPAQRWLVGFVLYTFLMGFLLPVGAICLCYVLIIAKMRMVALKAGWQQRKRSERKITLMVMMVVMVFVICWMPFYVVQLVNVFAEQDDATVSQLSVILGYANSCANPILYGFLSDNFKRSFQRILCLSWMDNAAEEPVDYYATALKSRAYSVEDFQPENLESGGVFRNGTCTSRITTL
Description: as §1, §2, §3, §4, §5

human sst2 = target: T3, human sst2 (Homo sapiens, UniProt P30874); settings: CCL39 cells stably expressing human sst2; sectioned membrane pellets; read-out: IC50 hsst2
T3 construct: expressed in transfected cells; host or cells: CCL39
T3 sequence (P30874 whole entry): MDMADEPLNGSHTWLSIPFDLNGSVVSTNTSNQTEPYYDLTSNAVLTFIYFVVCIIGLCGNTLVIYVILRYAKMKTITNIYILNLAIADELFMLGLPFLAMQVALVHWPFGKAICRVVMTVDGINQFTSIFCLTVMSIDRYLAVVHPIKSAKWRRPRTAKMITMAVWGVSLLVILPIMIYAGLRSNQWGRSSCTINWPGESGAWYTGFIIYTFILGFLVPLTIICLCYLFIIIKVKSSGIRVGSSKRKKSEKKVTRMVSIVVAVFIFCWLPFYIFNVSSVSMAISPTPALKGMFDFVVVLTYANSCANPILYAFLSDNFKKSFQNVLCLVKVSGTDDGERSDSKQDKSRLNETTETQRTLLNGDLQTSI
Description: as §1, §2, §3, §4, §5

human sst4 = target: T4, human sst4 (Homo sapiens, UniProt P31391); settings: CCL39 cells stably expressing human sst4; sectioned membrane pellets; read-out: IC50 hsst4
T4 construct: expressed in transfected cells; host or cells: CCL39
T4 sequence (P31391 whole entry): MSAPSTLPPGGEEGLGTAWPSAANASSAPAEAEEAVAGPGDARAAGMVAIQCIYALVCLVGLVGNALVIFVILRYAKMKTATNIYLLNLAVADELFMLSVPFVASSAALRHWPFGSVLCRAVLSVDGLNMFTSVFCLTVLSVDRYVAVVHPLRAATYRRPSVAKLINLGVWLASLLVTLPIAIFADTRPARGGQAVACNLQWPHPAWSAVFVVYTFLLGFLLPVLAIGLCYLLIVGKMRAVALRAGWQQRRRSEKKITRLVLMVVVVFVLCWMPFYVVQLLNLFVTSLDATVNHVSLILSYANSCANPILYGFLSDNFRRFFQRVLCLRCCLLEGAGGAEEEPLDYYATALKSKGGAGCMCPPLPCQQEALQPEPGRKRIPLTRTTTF
Description: as §1, §2, §3, §4, §5

human sst3 = target: T5, human sst3 (Homo sapiens, UniProt P32745); settings: CCL39 cells stably expressing human sst3; sectioned membrane pellets; read-out: IC50 hsst3
T5 construct: expressed in transfected cells; host or cells: CCL39
T5 sequence (P32745 whole entry): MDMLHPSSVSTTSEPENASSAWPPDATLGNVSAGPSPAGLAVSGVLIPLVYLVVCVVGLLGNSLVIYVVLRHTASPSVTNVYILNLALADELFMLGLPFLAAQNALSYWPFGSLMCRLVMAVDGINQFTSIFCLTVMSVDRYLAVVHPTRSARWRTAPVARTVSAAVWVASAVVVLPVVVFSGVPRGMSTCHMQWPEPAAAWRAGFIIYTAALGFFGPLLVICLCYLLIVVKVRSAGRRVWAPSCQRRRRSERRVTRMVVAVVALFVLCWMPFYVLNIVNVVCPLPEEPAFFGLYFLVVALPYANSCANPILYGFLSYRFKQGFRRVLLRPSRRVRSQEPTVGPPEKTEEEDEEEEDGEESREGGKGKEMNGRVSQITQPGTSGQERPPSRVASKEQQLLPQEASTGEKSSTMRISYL
Description: as §1, §2, §3, §4, §5

C[C@@H](O)[C@@H]1NC(=O)[C@H](CCCCN)NC(=O)[C@@H](Cc2c[nH]c3ccccc23)NC(=O)[C@H](Cc2ccccc2)NC(=O)[C@H](Cc2ccccc2)NC(=O)[C@H](CCCNC(=N)N)NC(=O)[C@H](NC(=O)CN2CCN(CC(=O)O)CCN(CC(=O)O)CCN(CC(=O)O)CC2)CCNC(=O)[C@H](Cc2ccccc2)NC1=O [A, Z = DOTA] ({DOTA}-[dDab]RFF[dW]KTF; lactam 1-C)
IC50 (human sst5): 0.8 nM | IC50 (human sst1): 7.6 nM | IC50 (human sst2): 3 nM | IC50 (human sst4): 0.9 nM | IC50 (human sst3): 1.6 nM

C[C@@H](O)[C@@H]1NC(=O)[C@H](CCCCN)NC(=O)[C@@H](Cc2c[nH]c3ccccc23)NC(=O)[C@H](Cc2ccc(O)cc2)NC(=O)[C@H](Cc2ccccc2)NC(=O)[C@H](CCCNC(=N)N)NC(=O)[C@H](N)CCNC(=O)[C@H](Cc2ccccc2)NC1=O [A with X4 is Tyr] (H-[dDab]RFY[dW]KTF; lactam 1-C)
IC50 (human sst5): 0.8 nM | IC50 (human sst1): 24.5 nM | IC50 (human sst2): 2.9 nM | IC50 (human sst4): 1 nM | IC50 (human sst3): 2 nM

C[C@@H](O)[C@@H]1NC(=O)[C@H](CCCCN)NC(=O)[C@@H](Cc2c[nH]c3ccccc23)NC(=O)[C@H](Cc2ccccc2)NC(=O)[C@H](Cc2ccccc2)NC(=O)[C@H](CC(N)=O)NC(=O)CCCNC(=O)[C@H](Cc2ccccc2)NC1=O [minisomatostatin, reference compound] (cyclo(FF[dW]KTF[GABA]N))
IC50 (human sst5): 6.8 nM | IC50 (human sst1): 172 nM | IC50 (human sst4): 15.3 nM | IC50 (human sst3): 3.2 nM

C[C@@H](O)[C@@H]1NC(=O)[C@H](CCCCN)NC(=O)[C@@H](Cc2c[nH]c3ccccc23)NC(=O)[C@H](Cc2ccc(O)cc2)NC(=O)[C@H](Cc2ccccc2)NC(=O)[C@H](CCCNC(=N)N)NC(=O)CCCNC(=O)[C@H](Cc2ccccc2)NC1=O [A with X4 is Tyr and X1 is GABA] (cyclo(F[GABA]RFY[dW]KT); ring closure inferred)
IC50 (human sst5): 0.57 nM | IC50 (human sst1): 10.5 nM | IC50 (human sst4): 0.68 nM | IC50 (human sst3): 1.7 nM
